Source: patent US7691843B2, “N-hydroxyamide derivatives possessing antibacterial activity” (Pfizer Inc., priority 2002, dated 2010)

Assays:
Assay type in all cases: in vivo
[1] = system: Escherichia coli ATCC 25922; test: Efficacy in murine E. coli septicemia; settings: ATCC25922; ICR mice inoculated intraperitoneally with Escherichia coli ATCC 25922 at 4×10^4 CFU; administered intravenously 1 hour after inoculation (doses in mg/kg); mortality recorded 7 days; non-linear regression
Protocol: (§1) Efficacy studies were performed in an E. coli murine septicemia model according to models published elsewhere (Goldstein, B. P., G. Candiani, T. M. Arain, G. Romano, I. Ciciliato, M. Berti, M. Abbondi, R. Scotti, M. Mainini, F. Ripamonti, and et al. 1995. Antimicrobial activity of MDL 63,246, a new semisynthetic glycopeptide antibiotic Antimicrob Agents Chemother. 39:1580-1588; Misiek, M., T. A. Pursiano, F. Leitner, and K. E. Price 1973. Microbiological properties of a new cephalosporin, BL-S 339: 7-(phenylacetimidoyl-aminoacetamido)-3-(2-methyl-1,3,4-thiadiazol-5-ylthio methyl)ceph-3-em-4-carboxylic acid Antimicrob Agents Chemother. 3:40-48).
The compound was dissolved in 10% DMSO, 0.1% Tween 80, 0.9% NaCl solution and administered intravenously at 10 ml/kg at 1 hour after bacterial inoculation. The compound was administered at 80, 40, 20, 5, 2.5, and 1.25 mg/kg. A control with ampicillin was included in the evaluation.
(§2) Male or female ICR mice weighing 22±2 g from MDS Pharma Services were used for the evaluation. Food and water was given ad libitum. Groups of 6 mice weighing 22+g were used for the experiment. Mice were inoculated intraperitoneally with Escherichia coli ATCC 25922 at 4×10^4 CFU in 0.5 ml of Brain Heart Infusion Broth (Difco) containing 5% mucin (Sigma). Mortality was recorded once daily for 7 days following bacterial inoculation.

[2] = system: Proteus vulgaris ATCC 13315; test: Efficacy in murine Proteus vulgaris septicemia; settings: ATCC13315; ICR mice inoculated intraperitoneally with Proteus vulgaris ATCC 13315 at 1×10^8 CFU; administered intravenously 1 hour after inoculation (doses in mg/kg); mortality recorded 7 days; non-linear regression
Protocol: as §1, with “P. vulgaris” for “E. coli”
(§3) The compound was dissolved in 10% DMSO, 0.1% Tween 80, 0.9% NaCl solution and administered intravenously at 10 ml/kg at 1 hour after bacterial inoculation. The compound was administered at 20, 10, 5, 2.5, and 1.25 mg/kg. A control with ampicillin was included in the evaluation.
as §2, with “24±2” for “22±2”, “24±g” for “22+g”, “Proteus vulgaris” for “Escherichia coli”, “13315” for “25922”, “1×10^8” for “4×10^4”

[3] = system: Klebsiella pneumoniae ATCC 10031; test: Efficacy in murine Klebsiella pneumoniae septicemia; settings: ATCC10031; ICR mice inoculated intraperitoneally with Klebsiella pneumoniae ATCC 10031 at 3×10^7 CFU; administered intravenously 1 hour after inoculation (doses in mg/kg); mortality recorded 7 days; non-linear regression
Protocol: as §1, with “K. pneumoniae” for “E. coli”
as §3
as §2, with “24±2” for “22±2”, “24±g” for “22+g”, “Klebsiella pneumoniae” for “Escherichia coli”, “10031” for “25922”, “3×10^7” for “4×10^4”

CC1(C)S[C@@H]2[C@H](NC(=O)[C@H](N)c3ccccc3)C(=O)N2[C@H]1C(=O)O [ampicillin]
ED50 [1]: 14.1 mg/kg
ED50 [2]: 29.7 mg/kg
ED50 [3]: 6.8 mg/kg
